Target: T1, LXR beta (Homo sapiens, UniProt P55055)
T1 construct: 5 μL of 4×LXR beta-LBD was added to each well (final concentration 5 nM); purchased Thermofisher PV4658
T1 sequence (P55055 222-460 limits assumed): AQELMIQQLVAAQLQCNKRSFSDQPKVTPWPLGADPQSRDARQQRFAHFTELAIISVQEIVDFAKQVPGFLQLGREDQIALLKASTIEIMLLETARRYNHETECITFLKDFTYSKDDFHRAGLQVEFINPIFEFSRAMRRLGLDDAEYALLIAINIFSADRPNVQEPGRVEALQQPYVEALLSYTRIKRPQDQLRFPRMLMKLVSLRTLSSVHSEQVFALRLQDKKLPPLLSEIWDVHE
Experiment: LXR beta agonist assay (Lanthascreen TR-FRET)
Type: biochemical
Details: LXR beta-LBD 5 nM, read-out: LXR-β EC50
Protocol: EC50 values of compounds against LXR beta were determined at Integral BioSciences (India) using Lanthascreen TR-FRET (Thermofisher, Cat #PV4658). Assay was performed in a 20 μL final volume in a Black 384-well plate (Corning, Cat #4511). Dose response curve for the compounds were prepared in duplicates with starting concentration at 30 μM and a three-fold titration was performed. The reaction buffer consisted of TR-FRET Coregulator Buffer G. To the compound dilution, 5 μL of 4×LXR beta-LBD was added to each well (final concentration 5 nM). An equal volume (5 μL) containing 4×Fl-D22/Tb-anti GST antibody (final concentration 100 nM/10 nM) was added to initiate the enzyme reaction and the reaction was incubated for 60 min at 22° C. after which the plates were read using BioTek Plate reader for TR-FRET every hour up to 4 hours.
Analysis was done using the standard curve by non-linear regression, variable slope inhibitor curve fits (Graph-Pad Prism) and EC50's of compounds were determined wherever possible.

Row | SMILES | EC50 [µM]
1 | CN(C)C(=O)c1ccc(NC2CN(C3CCN(C(=O)[C@](O)(c4ccccc4)C(F)(F)F)CC3)C2)cc1Cl (single isomer, unassigned) [Compound 1.9] | > 30
2 | CN(C)C(=O)c1ccc(NC2CN(C3CCN(C(=O)[C@](O)(c4ccccc4)C(F)(F)F)CC3)C2)cc1F (single isomer, unassigned) [Compound 1.86] | > 30
3 | CN(C)C(=O)c1ccc(NC2CN(C3CCN(C(=O)[C@](O)(c4ccccc4)C(F)(F)F)CC3)C2)cc1F (single isomer, unassigned) [Compound 1.87] | > 30
4 | CCN(CC)C(=O)c1ccc(NC2CN(C3CCN(C(=O)[C@@](O)(c4ccccc4)C(F)(F)F)CC3)C2)cc1Cl (single isomer, unassigned) [Compound 1.96] | 4.57
5 | CCN(CC)C(=O)c1ccc(NC2CN(C3CCN(C(=O)[C@](O)(c4ccccc4)C(F)(F)F)CC3)C2)cc1Cl (single isomer, unassigned) [Compound 1.97] | 1.17
6 | O=C(c1ccc(NC2CN(C3CCN(C(=O)[C@@](O)(c4ccccc4)C(F)(F)F)CC3)C2)cc1Cl)N1CCCC1 (single isomer, unassigned) [Compound 1.99] | 1.82
7 | CC(=O)N1CCN(C(=O)c2ccc(NC3CN(C4CCN(C(=O)[C@@](O)(c5ccccc5)C(F)(F)F)CC4)C3)cc2Cl)CC1 (single isomer, unassigned) [Compound 1.105] | 2.25
8 | O=C(NCC(F)F)c1ccc(NC2CN(C3CCN(C(=O)[C@](O)(c4ccccc4)C(F)(F)F)CC3)C2)cc1Cl (single isomer, unassigned) [Compound 1.106] | 2.71
9 | O=C(NCC(F)F)c1ccc(NC2CN(C3CCN(C(=O)[C@@](O)(c4ccccc4)C(F)(F)F)CC3)C2)cc1Cl (single isomer, unassigned) [Compound 1.107] | 1.3
10 | O=C(c1ccc(NC2CN(C3CCN(C(=O)[C@](O)(c4ccccc4)C(F)(F)F)CC3)C2)cc1Cl)N1CCCCC1 (single isomer, unassigned) [Compound 1.108] | 1.57
11 | O=C(c1ccc(NC2CN(C3CCN(C(=O)[C@](O)(c4ccccc4)C(F)(F)F)CC3)C2)cc1Cl)N1CCCCC1 (single isomer, unassigned) [Compound 1.109] | 3.01
12 | CN(C)C(=O)c1ccc(NC2CN(C3CCN(C(=O)[C@@](O)(c4ccc(F)cc4)C(F)(F)F)CC3)C2)cc1Cl (single isomer, unassigned) [Compound 1.116] | 9.85
13 | CN(C)C(=O)c1ccc(NC2CN(C3CCN(C(=O)[C@@](O)(c4cccc(Cl)c4)C(F)(F)F)CC3)C2)cc1Cl (single isomer, unassigned) [Compound 1.118] | 0.241
14 | Cc1cccc([C@](O)(C(=O)N2CCC(N3CC(Nc4ccc(C(=O)N(C)C)c(Cl)c4)C3)CC2)C(F)(F)F)c1 (single isomer, unassigned) [Compound 1.121] | 2.85
15 | CN(C)C(=O)c1ccc(NC2CN(C3CCN(S(=O)(=O)c4ccccc4Cl)CC3)C2)cc1Cl [Compound 1.2, 2-chloro-4-(1-(1-(2-chlorophenylsulfonyl)piperidin-4-yl)azetidin-3-ylamino)-N,N-dimethylbenzamide] | 3.34
16 | CN(C)C(=O)c1ccc(-c2nnc(C3CCN(S(=O)(=O)c4ccccc4Cl)CC3)s2)cc1Cl [Compound 1.11, 2-chloro-4-(5-(1-(2-chlorophenylsulfonyl)piperidin-4-yl)-1,3,4-thiadiazol-2-yl)-N,N-dimethylbenzamide] | 3.09
17 | CN(C)C(=O)c1ccc(NC2CN(C3CCN(S(=O)(=O)c4ccccc4C#N)CC3)C2)cc1Cl [Compound 1.13, 2-chloro-4-(1-(1-(2-cyanophenylsulfonyl)piperidin-4-yl)azetidin-3-ylamino)-N,N-dimethylbenzamide] | 4.43

Row | SMILES | EC50 [µM]
18 | N#Cc1ccccc1S(=O)(=O)N1CCC(C2CCN(c3cc(Cl)c4c(=O)[nH]ccc4c3)CC2)CC1 [Compound 1.15, 2-(1′-(8-chloro-1-oxo-1,2-dihydroisoquinolin-6-yl)-4,4′-bipiperidin-1-ylsulfonyl)benzonitrile] | 2.74
19 | O=C(N1CCC(C2CCN(c3cc(Cl)c4c(=O)[nH]ccc4c3)CC2)CC1)C1(c2ccccc2)CCC1 [Compound 1.22, 8-chloro-6-(1′-(1-phenylcyclobutanecarbonyl)-[4,4′-bipiperidin]-1-yl)isoquinolin-1(2H)-one] | 2.4
20 | CC(C)(C(=O)N1CCC(C2CCN(c3cc(Cl)c4c(=O)[nH]ccc4c3)CC2)CC1)c1ccccc1 [Compound 1.24, 8-chloro-6-(1′-(2-methyl-2-phenylpropanoyl)-4,4′-bipiperidin-1-yl)isoquinolin-1(2H)-one] | 2.48
21 | CN(C)C(=O)c1ccc(-c2ccn(C3CCN(C(=O)C(O)(c4ccccc4)C(F)(F)F)CC3)c(=O)c2)cc1Cl (stereo not drawn) [Compound 1.27, 2-chloro-N,N-dimethyl-4-(2-oxo-1-(1-(3,3,3-trifluoro-2-hydroxy-2-phenylpropanoyl)piperidin-4-yl)-1,2-dihydropyridin-4-yl)benzamide] | > 30
22 | CN(C)C(=O)c1ccc(N(C)C2CN(C3CCN(C(=O)C4(c5ccccc5)CCC4)CC3)C2)cc1Cl [Compound 1.31, 2-chloro-N,N-dimethyl-4-(methyl(1-(1-(1-phenylcyclobutanecarbonyl)piperidin-4-yl)azetidin-3-yl)amino)benzamide] | 3.23
23 | CN(C)C(=O)c1ccc(N(C)C2CN(C3CCN(C(=O)[C@](O)(c4ccccc4)C(F)(F)F)CC3)C2)cc1Cl [Compound 1.32, (R)-2-chloro-N,N-dimethyl-4-(methyl(1-(1-(3,3,3-trifluoro-2-hydroxy-2-phenylpropanoyl)piperidin-4-yl)azetidin-3-yl)amino)benzamide] | 7.23
24 | CN(C)C(=O)c1ccc(NC2CN(C3CCN(C(=O)C4(c5ccc(Cl)cc5)CCC4)CC3)C2)cc1Cl [Compound 1.33, 2-chloro-4-(1-(1-(1-(4-chlorophenyl)cyclobutanecarbonyl)piperidin-4-yl)azetidin-3-ylamino)-N,N-dimethylbenzamide] | 4.3
25 | CN(C)C(=O)c1ccc(NC2CN(C3CCN(C(=O)C4(c5ccc(F)cc5)CCCC4)CC3)C2)cc1Cl [Compound 1.34, 2-chloro-4-(1-(1-(1-(4-fluorophenyl)cyclopentanecarbonyl)piperidin-4-yl)azetidin-3-ylamino)-N,N-dimethylbenzamide] | 3.41
26 | CN(C)C(=O)c1ccc(-c2nnc(C3=CCN(C(=O)C(C)(C)C)CC3)s2)cc1Cl [Compound 1.59, 2-chloro-N,N-dimethyl-4-(5-(1-pivaloyl-1,2,3,6-tetrahydropyridin-4-yl)-1,3,4-thiadiazol-2-yl)benzamide] | 5.45
27 | CN(C)C(=O)c1ccc(-c2nnc(C3=CCN(C(=O)C4CCC(F)(F)CC4)CC3)s2)cc1Cl [Compound 1.60, 2-chloro-4-(5-(1-(4,4-difluorocyclohexanecarbonyl)-1,2,3,6-tetrahydropyridin-4-yl)-1,3,4-thiadiazol-2-yl)-N,N-dimethylbenzamide] | 1.51
28 | CN(C)C(=O)c1ccc(-c2nnc(C3=CCN(S(=O)(=O)c4cc(Cl)ccc4Cl)CC3)s2)cc1Cl [Compound 1.61, 2-chloro-4-(5-(1-(2,5-dichlorophenylsulfonyl)-1,2,3,6-tetrahydropyridin-4-yl)-1,3,4-thiadiazol-2-yl)-N,N-dimethylbenzamide] | > 10
29 | COc1ncc(Cl)cc1S(=O)(=O)N1CC=C(c2nnc(-c3ccc(C(=O)N(C)C)c(Cl)c3)s2)CC1 [Compound 1.62, 2-chloro-4-(5-(1-(5-chloro-2-methoxypyridin-3-ylsulfonyl)-1,2,3,6-tetrahydropyridin-4-yl)-1,3,4-thiadiazol-2-yl)-N,N-dimethylbenzamide] | > 10
30 | CN(C)C(=O)c1ccc(NC2CN(C3CCN(C(=O)C4CCC(F)(F)CC4)CC3)C2)cc1Cl [Compound 1.63, 2-chloro-4-(1-(1-(4,4-dfluorocyclohexanecarbonyl)piperidin-4-yl)azetidin-3-ylamino)-N,N-dimethylbenzamide] | > 30
31 | COc1cccc(C2(C(=O)N3CC=C(c4nnc(-c5ccc(C(=O)N(C)C)c(Cl)c5)s4)CC3)CCCC2)c1 [Compound 1.64, 2-chloro-4-(5-(1-(1-(3-methoxyphenyl)cyclopentanecarbonyl)-1,2,3,6-tetrahydropyridin-4-yl)-1,3,4-thiadiazol-2-yl)-N,N-dimethylbenzamide] | > 30
32 | CN(C)C(=O)c1ccc(-c2nnc(C3=CCN(C(=O)C45CC6CC(CC(C6)C4)C5)CC3)s2)cc1Cl [Compound 1.65, 4-{5-[1-(adamantane-1-carbonyl)-1,2,3,6-tetrahydropyridin-4-yl]-1,3,4-thiadiazol-2-yl}-2-chloro-N,N-dimethylbenzamide] | 3.96
33 | CN(C)C(=O)c1ccc(NC2CN(C3CCN(C(=O)C45CC6CC(CC(C6)C4)C5)CC3)C2)cc1Cl [Compound 1.66, 4-({1-[1-(adamantane-1-carbonyl)piperidin-4-yl]azetidin-3-yl}amino)-2-chloro-N,N-dimethylbenzamide] | > 20.4

— patent US20220363662A1, “COMPOUNDS AS LXR AGONISTS” (Integral Biosciences Privated Limited, priority 2021, published 2022)
